Assay results from ChEMBL document CHEMBL4130488, “Synthesis and biological evaluation of novel non-racemic indole-containing allocolchicinoids” (Eur J Med Chem, 2017).
pIC50: −log10 of the molar value. Activity calls are given as the source filed them. The rule behind the calls is not given here.

Experiments:
[1] = system: HEK293; experiment: Cytotoxic activity in HEK293 cells assessed as reduction in cell viability incubated for 72 hrs by MTT assay; type: cell-based; conditions: Homo sapiens, HEK293, 72 h
[2] = system: COLO357; experiment: Cytotoxic activity in human Colo-357 cells assessed as reduction in cell viability incubated for 72 hrs by MTT assay; type: functional, cell-based; conditions: COLO357, 72 h
[3] = system: MIA PaCa-2; experiment: Cytotoxic activity in human MIAPaCa2 cells assessed as reduction in cell viability incubated for 72 hrs by MTT assay; type: functional, cell-based; conditions: MIA PaCa-2, 72 h
[4] = system: COLO357; experiment: Induction of apoptosis in human Colo-357 cells at 5 uM incubated for 72 hrs by propidium iodide staining based flow cytometry (reference value: 12.4%); type: functional
[5] = system: COLO357; experiment: Induction of cell cycle arrest in human Colo-357 cells assessed as accumulation at G phase at 5 uM incubated for 72 hrs by propidium iodide staining based flow cytometry (reference value: 56.6%); type: functional
[6] = system: COLO357; experiment: Induction of cell cycle arrest in human Colo-357 cells assessed as accumulation at G2/M phase at 5 uM incubated for 72 hrs by propidium iodide staining based flow cytometry (reference value: 31%); type: functional
[7] = system: COLO357; experiment: Induction of cell cycle arrest in human Colo-357 cells assessed as accumulation at […] phase at 5 uM incubated for 72 hrs by propidium iodide staining based flow cytometry (reference value: 1.8%); type: functional
[8] = species: Homo sapiens; experiment: Inhibition of beta tubulin assembly in human Colo-357 cells at 5 uM incubated for 24 hrs by anti-tubulin antibody based confocal microscopy; type: cell-based
[9] = system: COLO357; experiment: Growth inhibition of human Colo-357 cells incubated for 72 hrs by MTT assay; type: functional
[10] = Gastrointestinal toxicity in human HT-29 cells assessed as effect on EPR at 5 uM incubated for 3 hrs by flow cytometry; type: cell-based; conditions: ht-29, 3 h
[11] = Gastrointestinal toxicity in human HT-29 cells assessed as effect on golgi apparatus at 5 uM incubated for 3 hrs by flow cytometry; type: cell-based; conditions: ht-29, 3 h
[12] = Gastrointestinal toxicity in human HT-29 cells assessed as effect on endosomes at 5 uM incubated for 3 hrs by flow cytometry; type: cell-based; conditions: ht-29, 3 h
[13] = Gastrointestinal toxicity in human HT-29 cells assessed as effect on membrane integrity at 5 uM incubated for 3 hrs by flow cytometry; type: cell-based; conditions: ht-29, 3 h
[14] = Gastrointestinal toxicity in human HT-29 cells assessed as increase in mitochondrial membrane potential at 5 uM incubated for 3 hrs by flow cytometry; type: cell-based; conditions: ht-29, 3 h
[15] = Gastrointestinal toxicity in human HT-29 cells assessed as increase in mitochondrial number at 5 uM incubated for 3 hrs by flow cytometry; type: cell-based; conditions: ht-29, 3 h
[16] = Gastrointestinal toxicity in human HT-29 cells assessed as relocation from perinuclear position to cytoplasm at 5 uM incubated for 3 hrs by flow cytometry; type: cell-based; conditions: ht-29, 3 h
[17] = Gastrointestinal toxicity in human HT-29 cells assessed as lysosomal membrane potential at 5 uM incubated for 3 hrs by flow cytometry; type: cell-based; conditions: ht-29, 3 h
[18] = species: Homo sapiens; experiment: Inhibition of beta tubulin assembly in human Colo-357 cells at 5 uM incubated for 3 hrs by anti-tubulin antibody based confocal microscopy; type: cell-based
[19] = system: HT-29; experiment: Cytotoxic activity in human HT-29 cells assessed as reduction in cell viability at 0.1 to 100000 nM incubated for 24 hrs by MTT assay; type: functional, cell-based
[20] = system: PANC-1; experiment: Cytotoxic activity in human PANC1 cells assessed as reduction in cell viability at 0.1 to 100000 nM incubated for 24 hrs by MTT assay; type: functional, cell-based
[21] = system: HEK293; experiment: Cytotoxic activity in HEK293 cells assessed as reduction in cell viability at 0.1 to 100000 nM incubated for 24 hrs by MTT assay; type: cell-based; conditions: human, hek293, 24 h, 100 µM
[22] = Gastrointestinal toxicity in human HT-29 cells assessed as mitochondrial stimulation at 5 uM incubated for 3 hrs by flow cytometry; type: cell-based; conditions: ht-29, 3 h
[23] = system: COLO357; experiment: Induction of mitochondrial changes in human Colo-357 cells at 5 uM incubated for 3 hrs by flow cytometry; type: functional, cell-based

Structure (SMILES) | pIC50 [1] | pIC50 ([2]; read-out: IC50) | pIC50 ([3]; read-out: IC50) | Activity [4] [%] | Activity [5] [%] | Activity [6] [%] | Activity [7] [%] | inhibition [8] | growth inhibition (GI) [9] | Activity [10] | Activity [11] | Activity [12] | Activity [13] | Activity [17] | also measured
COc1c(Br)c2c(c(OC)c1OC)-c1cc3cc(CO)[nH]c3cc1[C@@H](NC(C)=O)CC2 | 6.80 | 8.46 | 8.00 | 23 | 16 | 61 | 0.3 | Active | 60 - 80% |  |  |  |  |  | 
COc1cc2c(c(OC)c1OC)-c1ccc(OC)c(=O)cc1[C@@H](NC(C)=O)CC2 [COLCHICINE] | 7.49 |  |  | 12.4 | 12.6 | 75 | 0.2 | Active | 60 - 80% | Non-Toxic | Non-Toxic | Non-Toxic | Non-Toxic | Toxic | pIC50 [2]: 8.89; pIC50 [3]: 8.89; Activity [14]: Toxic; Activity [15]: Toxic; Activity [16]: Toxic
COc1c(Br)c2c(c(OC)c1OC)-c1cc3cc(CO)n(C)c3cc1[C@@H](NC(C)=O)CC2 | 8.19 | 9.52 | > 10.00 | 25 | 12 | 63 | 0.2 | Active | 60 - 80% | Non-Toxic | Non-Toxic | Non-Toxic | Non-Toxic | Non-Toxic | inhibition [18]: Active; Activity [19]: Active; Activity [20]: inactive; Activity [21]: Non-Toxic; Activity [22]: Non-Toxic; Activity [23]: Active
